The test system of the series is Hepatotoxicity. The series can be described thus: Literature-mined public compounds from Greene et al multi-species hepatotoxicity modelling dataset.

Molecules are shown by their SMILES.

For the compound `CNC(=O)Oc1ccc2c(c1)[C@]1(C)CCN(C)[C@@H]1N2C` [PHYSOSTIGMINE], the Hepatotoxicity entry is “NE: No evidence of hepatotoxicity in any species”.
As for `CC[C@@H]1C(=O)OC[C@@H]1Cc1cncn1C` [PILOCARPINE], the entry is “NE: No evidence of hepatotoxicity in any species”.
Take `O=c1[nH]c2ccccc2n1C1CCN(CCCC(c2ccc(F)cc2)c2ccc(F)cc2)CC1` [PIMOZIDE]: the Hepatotoxicity entry is on record as “NE: No evidence of hepatotoxicity in any species”.
For the compound `CC(N/C(=N\C#N)Nc1ccncc1)C(C)(C)C` (stereo not drawn) [PINACIDIL ANHYDROUS], the Hepatotoxicity result is “NE: No evidence of hepatotoxicity in any species”.
`CC(C)NCC(O)COc1cccc2[nH]ccc12` (stereo not drawn) [PINDOLOL]: the Hepatotoxicity result is recorded as “NE: No evidence of hepatotoxicity in any species”.
The value for `CCc1ccc(CCOc2ccc(CC3SC(=O)NC3=O)cc2)nc1` (stereo not drawn) [PIOGLITAZONE] was “WE: Weak evidence (<10 case reports) of human hepatotoxicity”; that for `Cc1cccc(Nc2cc(Cl)nc(SCC(=O)O)n2)c1C` [PIRINIXIC ACID] was “AH: Evidence for animal hepatotoxicity but not tested in humans”.
The value for `CN1C(C(=O)Nc2ccccn2)=C(O)c2ccccc2S1(=O)=O` [PIROXICAM] was “HH: Evidence of human hepatotoxicity”; that for `CC(C(=O)O)c1ccc(N2CC=CC2)c(Cl)c1` (stereo not drawn) [PIRPROFEN] was “HH: Evidence of human hepatotoxicity”.
The value for `C[C@]12C=CC(=O)C=C1CC[C@@H]1[C@@H]2C(=O)C[C@@]2(C)[C@H]1CC[C@]2(O)C(=O)CO` [PREDNISONE] was “WE: Weak evidence (<10 case reports) of human hepatotoxicity”; that for `CC(=O)[C@H]1[C@H](C#N)C[C@H]2[C@@H]3CC=C4C[C@@H](O)CC[C@]4(C)[C@H]3CC[C@@]21C` [PREGNENOLONE CARBONITRILE] was “AH: Evidence for animal hepatotoxicity but not tested in humans”; that for `COc1cc(NC(C)CCCN)c2ncccc2c1.O=P(O)(O)O.O=P(O)(O)O` (stereo not drawn) [PRIMAQUINE PHOSPHATE] was “WE: Weak evidence (<10 case reports) of human hepatotoxicity”.
As to `CCC1(c2ccccc2)C(=O)NCNC1=O` [PRIMIDONE], the Hepatotoxicity result was “NE: No evidence of hepatotoxicity in any species”.
On to `CCCN(CCC)S(=O)(=O)c1ccc(C(=O)O)cc1` [PROBENECID], for which the Hepatotoxicity result is listed as “WE: Weak evidence (<10 case reports) of human hepatotoxicity”.
`CC(C)(Sc1cc(C(C)(C)C)c(O)c(C(C)(C)C)c1)Sc1cc(C(C)(C)C)c(O)c(C(C)(C)C)c1` [PROBUCOL]: the Hepatotoxicity result was “NE: No evidence of hepatotoxicity in any species”.
The value for `CNNCc1ccc(C(=O)NC(C)C)cc1.Cl` [PROCARBAZINE HYDROCHLORIDE] was “HH: Evidence of human hepatotoxicity”.
As to `CN1CCN(CCCN2c3ccccc3Sc3ccc(Cl)cc32)CC1.O=C(O)/C=C\C(=O)O.O=C(O)/C=C\C(=O)O` [PROCHLORPERAZINE MALEATE], the Hepatotoxicity result is given as “HH: Evidence of human hepatotoxicity”.
As for `CC(=O)[C@H]1CC[C@H]2[C@@H]3CCC4=CC(=O)CC[C@]4(C)[C@H]3CC[C@]12C` [PROGESTERONE], the entry is “HH: Evidence of human hepatotoxicity”; as for `CN(C)CCCN1c2ccccc2Sc2ccccc21.Cl` [PROMAZINE HYDROCHLORIDE], “WE: Weak evidence (<10 case reports) of human hepatotoxicity”; as for `CC(CN1c2ccccc2Sc2ccccc21)N(C)C.Cl` (stereo not drawn) [PROMETHAZINE HYDROCHLORIDE], “NE: No evidence of hepatotoxicity in any species”.
The value for `CC(C)c1cccc(C(C)C)c1O` [PROPOFOL] was “NE: No evidence of hepatotoxicity in any species”; that for `CC(C)NCC(O)COc1cccc2ccccc12` (stereo not drawn) [PROPRANOLOL] was “NE: No evidence of hepatotoxicity in any species”; that for `CN[C@@H](C)[C@@H](O)c1ccccc1.Cl` [PSEUDOEPHEDRINE HYDROCHLORIDE] was “NE: No evidence of hepatotoxicity in any species”.
As for `COc1ccc(C[C@H](N)C(=O)N[C@H]2[C@@H](O)[C@H](n3cnc4c(N(C)C)ncnc43)O[C@@H]2CO)cc1` [PUROMYCIN], the entry is “AH: Evidence for animal hepatotoxicity but not tested in humans”.
Regarding `NC(=O)c1cnccn1` [PYRAZINAMIDE], the Hepatotoxicity result is “HH: Evidence of human hepatotoxicity”.
The value for `CN(C)C(=O)Oc1ccc[n+](C)c1.[Br-]` [PYRIDOSTIGMINE BROMIDE] was “NE: No evidence of hepatotoxicity in any species”; that for `Cc1ncc(CO)c(CO)c1O` [PYRIDOXINE] was “NE: No evidence of hepatotoxicity in any species”.
For `CCc1nc(N)nc(N)c1-c1ccc(Cl)cc1` [PYRIMETHAMINE], the Hepatotoxicity result is “HH: Evidence of human hepatotoxicity”.
As for `C=C[C@H]1C[N@@]2CC[C@H]1C[C@@H]2[C@@H](O)c1ccnc2ccc(OC)cc12` [QUINIDINE], the entry is “HH: Evidence of human hepatotoxicity”.
As for `C=C[C@H]1CN2CC[C@H]1C[C@H]2[C@H](O)c1ccnc2ccc(OC)cc12.C=C[C@H]1CN2CC[C@H]1C[C@H]2[C@H](O)c1ccnc2ccc(OC)cc12.O.O.O=S(=O)(O)O` [QUININE SULFATE], the entry is “HH: Evidence of human hepatotoxicity”; as for `C=C[C@H]1C[N@@]2CC[C@H]1C[C@H]2[C@H](O)c1ccnc2ccc(OC)cc12` [QUININE], “HH: Evidence of human hepatotoxicity”.
As for `CCO[C@@H](Cc1ccc(OCCN2c3ccccc3Oc3ccccc32)cc1)C(=O)O` [RAGAGLITAZAR], the entry is “NE: No evidence of hepatotoxicity in any species”.
Turning to `O=C(c1ccc(OCCN2CCCCC2)cc1)c1c(-c2ccc(O)cc2)sc2cc(O)ccc12` [RALOXIFENE], the Hepatotoxicity entry is reported as “WE: Weak evidence (<10 case reports) of human hepatotoxicity”.
For `CNC(=C[N+](=O)[O-])NCCSCc1ccc(CN(C)C)o1` [RANITIDINE], the Hepatotoxicity result is listed as “WE: Weak evidence (<10 case reports) of human hepatotoxicity”.
Take `NC(=O)c1ncn([C@@H]2O[C@H](CO)[C@@H](O)[C@H]2O)n1` [RIBAVIRIN]: the Hepatotoxicity result was “WE: Weak evidence (<10 case reports) of human hepatotoxicity”.
As for `CO[C@H]1/C=C/O[C@@]2(C)Oc3c(C)c(O)c4c(c3C2=O)C2=NC3(CCN(CC(C)C)CC3)NC2=C(NC(=O)/C(C)=C\C=C\[C@H](C)[C@H](O)[C@@H](C)[C@@H](O)[C@@H](C)[C@H](OC(C)=O)[C@@H]1C)C4=O` [RIFABUTIN], the entry is “HH: Evidence of human hepatotoxicity”.
The value for `CO[C@H]1/C=C/O[C@@]2(C)Oc3c(C)c(O)c4c(O)c(c(/C=N/N5CCN(C)CC5)c(O)c4c3C2=O)NC(=O)/C(C)=C\C=C\[C@H](C)[C@H](O)[C@@H](C)[C@@H](O)[C@@H](C)[C@H](OC(C)=O)[C@@H]1C` [RIFAMPIN] was “WE: Weak evidence (<10 case reports) of human hepatotoxicity”; that for `Nc1nc2ccc(OC(F)(F)F)cc2s1` [RILUZOLE] was “HH: Evidence of human hepatotoxicity”; that for `Cc1nc2n(c(=O)c1CCN1CCC(c3noc4cc(F)ccc34)CC1)CCCC2` [RISPERIDONE] was “HH: Evidence of human hepatotoxicity”.
The value for `CC(C)c1nc(CN(C)C(=O)N[C@H](C(=O)N[C@@H](Cc2ccccc2)C[C@H](O)[C@H](Cc2ccccc2)NC(=O)OCc2cncs2)C(C)C)cs1` [RITONAVIR] was “HH: Evidence of human hepatotoxicity”; that for `CN(CCOc1ccc(CC2SC(=O)NC2=O)cc1)c1ccccn1` (stereo not drawn) [ROSIGLITAZONE] was “WE: Weak evidence (<10 case reports) of human hepatotoxicity”; that for `C=C(C)[C@H]1Cc2c(ccc3c2O[C@@H]2COc4cc(OC)c(OC)cc4[C@@H]2C3=O)O1` [ROTENONE] was “AH: Evidence for animal hepatotoxicity but not tested in humans”.
Take `CC(C)(C)NC(=O)[C@@H]1C[C@@H]2CCCC[C@@H]2CN1C[C@@H](O)[C@H](Cc1ccccc1)NC(=O)[C@H](CC(N)=O)NC(=O)c1ccc2ccccc2n1.CS(=O)(=O)O` [SAQUINAVIR MESYLATE]: the Hepatotoxicity result is reported as “HH: Evidence of human hepatotoxicity”.
As for `CN[C@H]1CC[C@@H](c2ccc(Cl)c(Cl)c2)c2ccccc21` [SERTRALINE], the entry is “WE: Weak evidence (<10 case reports) of human hepatotoxicity”; as for `O=C([O-])O.[Na+]` [SODIUM BICARBONATE], “AH: Evidence for animal hepatotoxicity but not tested in humans”.
On to `[Cl-].[Na+]` [SODIUM CHLORIDE], for which the Hepatotoxicity entry is given as “NE: No evidence of hepatotoxicity in any species”.
The value for `OC[C@@H](O)[C@@H](O)[C@H](O)[C@@H](O)CO` [SORBITOL] was “NE: No evidence of hepatotoxicity in any species”.
As for `CC(=O)S[C@@H]1CC2=CC(=O)CC[C@]2(C)[C@H]2CC[C@@]3(C)[C@@H](CC[C@@]34CCC(=O)O4)[C@H]12` [SPIRONOLACTONE], the entry is “HH: Evidence of human hepatotoxicity”; as for `Cc1cn([C@H]2C=C[C@@H](CO)O2)c(=O)[nH]c1=O` [STAVUDINE], “HH: Evidence of human hepatotoxicity”.
As for `CN[C@@H]1[C@H](O[C@H]2[C@H](O[C@H]3[C@H](O)[C@@H](O)[C@H](N=C(N)N)[C@@H](O)[C@@H]3N=C(N)N)O[C@@H](C)[C@]2(O)C=O)O[C@@H](CO)[C@H](O)[C@H]1O.CN[C@@H]1[C@H](O[C@H]2[C@H](O[C@H]3[C@H](O)[C@@H](O)[C@H](N=C(N)N)[C@@H](O)[C@@H]3N=C(N)N)O[C@@H](C)[C@]2(O)C=O)O[C@@H](CO)[C@H](O)[C@H]1O.O=S(=O)(O)O.O=S(=O)(O)O.O=S(=O)(O)O` [STREPTOMYCIN SULFATE], the entry is “NE: No evidence of hepatotoxicity in any species”; as for `[H]/N=C(/N)N[C@H]1[C@H](O)[C@@H](O)[C@H](O[C@@H]2O[C@@H](C)[C@](O)(C=O)[C@H]2O[C@@H]2O[C@@H](CO)[C@H](O)[C@@H](O)[C@@H]2NC)[C@@H](N/C(N)=N\[H])[C@@H]1O` [STREPTOMYCIN], “NE: No evidence of hepatotoxicity in any species”.
With `CN(N=O)C(=O)N[C@@H](C=O)[C@@H](O)[C@H](O)[C@H](O)CO` [STREPTOZOCIN], the Hepatotoxicity result is listed as “NE: No evidence of hepatotoxicity in any species”.
The value for `Clc1ccc(CSC(Cn2ccnc2)c2ccc(Cl)cc2Cl)cc1.O=[N+]([O-])O` (stereo not drawn) [SULCONAZOLE NITRATE] was “NE: No evidence of hepatotoxicity in any species”.
